The values below come from paper PMC3055912, “A Method for Structure–Activity Analysis of Quorum-Sensing Signaling Peptides from Naturally Transformable Streptococci” (Biological Procedures Online, 2009).

For data set [1] the following is noted: aqueous buffer 50 mM K2HPO4/KH2PO4 pH 7.0; NMR needs 1.0 to 10 mM peptide.
Method: For NMR studies, buffers, co-solvents, and additives were hydrogen-free or deuterated. Samples could be dissolved in as little as 10 μL, but typically, spectrometers were designed for sample volumes of at least 500 μL. Due to the inherently low sensitivity, concentrations of peptides ranged from 1.0 to 10 mM [13].
In our study, synthetic peptides CSP (UA159sp) and TPC3 for CD and NMR were dissolved in 95/5/0%, 70/0/30%, 30/0/70%, or 0/0/100% aqueous buffer/D2O/TFE-d2, or 95/5 aqueous buffer/D2O with 300 mM DPC-d38 (98 atom %D), where TFE refers to trifluoroethanol and DPC-d38 refers to perdeuterated dodecylphosphocholine [10, 13]. The aqueous buffer used for sample preparation contained 50 mM K2HPO4/KH2PO4 at pH 7.0. The concentration of peptides for solutions containing 100% TFE-d2 or DPC-d38 was 2 and 5 mM.
Data set [2] addresses quorum sensing (ComCDE signaling) in S. mutans lacZ reporter strains (Streptococcus mutans serotype c, UniProt Q8DS94). To be noted: truncated peptides; cited from earlier work. The source says: Based on the three-dimensional structures of S. mutans wild-type signaling peptide UA159sp (CSP) and C-terminally truncated peptide TPC3 from mutant JH1005 defective in genetic competence, we designed and synthesized a series of truncated peptides and peptides with amino acid substitutions. […] The C-terminal structural motif consisting of a sequence of polar hydrophobic charged residues is crucial for activating the signal transduction pathway, while the core α-helical structure ext ...

Data set [3] concerns nlmAB promoter (PnlmAB::lacZ) in comC mutant SMdC. The experiment in a line: nlmAB-lacZ reporter β-gal activity, strain SMdC-PnlmAB. It counts as cell-based, Streptococcus mutans. As to conditions: for time for which the high level of β-gal activity is maintained / time of highest level of β-gal activity after addition of peptide: SMdC-PnlmAB, time-course experiment. The source says: (§1) To assay QS activation in response to addition of a peptide, we constructed two types of lacZ transcriptional reporter strains that represented two levels of QS-activated gene expression. The first was a lacZ reporter gene fused to the comDE promoter, which allowed monitoring of the activity of the comDE promoter in response to a test peptide. The second strain was a lacZ reporter gene fused to the promoter of nlmAB, the gene encoding a nonlantibiotic bacteriocin and its expression directly controlled by the ComE [6, 22]. This strain allowed assay of comDE-controlled bacteriocin production.
For the second reporter strain, we generated a chromosomal nlmAB–lacZ fusion strain by transforming a PnlmAB::lacZ fusion construct pOMZ47 [6] into both comC mutant SMdC and wild-type GS5. The resulting reporter strains were confirmed by PCR and sequencing of the fusion sites as described previously. The confirmed reporter strains were respectively named SMdC-PnlmAB (PnlmAB::lacZ, comC^-, Kan^r, Spec^r) and SMGS5-PnlmAB (PnlmAB::lacZ, Kan^r). The strain SMGS5-PnlmAB was used a positive control.
A lacZ reporter assay was performed to monitor quorum-sensing activation using the same method as described previously. The newly constructed lacZ reporter strains were used to assay and quantify β-galactosidase activity in response to test peptides. Aliquots of samples were taken to prepare cell lysates at different time points T0, T15, T30, T60, and T120 after addition of a test peptide. Protein concentrations of the supernatants were determined by Bio-Rad protein assay (Bio-Rad). Specific β-gal activities (A420 min^-1 mL^-1 mg^-1 protein) were calculated from triplicate samples from two independent experiments. The data from the β-gal activity experiments were then normalized against negative or background controls and plotted as percentages of maximal activation versus log peptide concentrations. The half maximal activation concentration (AC50) was determined from the sigmoidal dose–response curve using Prism 4 (Graphpad, San Diego, CA, USA).

Data set [4] relates to S. mutans comC mutant SMdC (indicator strain Streptococcus sanguinis SK108). The experiment in a line: QS-controlled bacteriocin production, agar plate overlay assay. As to conditions: for level of bacteriocins induced compared with wild-type GS5: comC mutant SMdC with peptide, inhibitory zone against S. sanguinis SK108, Figure 5. It counts as cell-based. As to the method:
The S. mutans comC mutant SMdC as well as its parent GS5 and wild-type strain UA159 (positive controls) were used to assay for bacteriocin production using a modified agar plate method. Briefly, an aliquot of mid-log phase cells of the S. mutans wild-type strains and mutant SMdC grown under a condition with or without use of CSP or a test peptide were stabbed onto THYE agar plates. The plates were incubated anaerobically at 37°C for 6 h before carefully overlaid with 100 μL of cell suspension (about 10^6 CFU/mL^-1) of an indicator strain Streptococcus sanguinis SK108. The plates were further incubated anaerobically at 37°C for 24 h before inspection of bacteriocin production. The S. mutans strains showing an inhibitory zone around the stabs were scored as positive for bacteriocin production. The plates were then photographed for records.

Data set [5] has as its system comDE promoter (PcomDE::lacZ) in comC mutant SMdC. Briefly: comDE-lacZ reporter β-gal activity, strain SMdC-pYH2. It counts as cell-based, Streptococcus mutans. To be noted: background control SMdC-pSL showed no significant difference.
From the text: as §1
For the first reporter strain, we simply transformed previously constructed vector pYH2 [10] into the comC mutant (SMdC) to generate SMdC-pYH2 (PcomDE::lacZ, comC^-, Spec^r, Kan^r). pYH2 was constructed in such a way that the comDE promoter was fused to a promoterless lacZ gene on the backbone of Streptococcus–Escherichia coli shuttle vector pSL. […] These strains were then assessed for lacZ reporter activity in response to addition of peptides.
A lacZ reporter assay was performed to monitor quorum-sensing activation using the same method as described previously. The newly constructed lacZ reporter strains were used to assay and quantify β-galactosidase activity in response to test peptides. […] Protein concentrations of the supernatants were determined by Bio-Rad protein assay (Bio-Rad). […]

Data set [6] shares this test system. To be noted: SMdC-pYH2; cited from earlier work. The method, then: We also used this mutant (SMdC) as a host to generate two types of lacZ transcriptional reporter fusion strains to assay the promoter activity of QS-controlled target genes, comDE and nlmAB, in response to addition of CSP. The lacZ reporter strain, SMdC-pYH2 (PcomDE::lacZ, comC^-, Spec^r, Kan^r), along with its background control strain SMdC-pSL (comC^-, Spec^r, Kan^r) were then assayed for β-galactosidase activity.

The subject of data set [7] is S. mutans comC mutant SMdC. Briefly: CSP-dependent transformation (genetic competence) assay. As to conditions: data not shown. It counts as cell-based, Streptococcus mutans. From the text: To determine if synthetic peptides activated quorum sensing for induction of genetic competence, we used the comC deletion mutant that was unable to produce, but still responded to CSP, to assay peptide-dependent genetic transformation using the method as described previously. A streptococcal suicide vector pVA-gtfA, which harbored a 2.4-kb fragment of the S. mutans gtfA gene and an erythromycin resistance marker, was used as transforming DNA. The wild-type GS5 was used as a positive control, while both ComC (SMdC) and ComE mutants (SMdE) were used as negative controls. The wild-type strain was grown on Todd–Hewitt yeast extract (THYE) medium, whereas the mutants were maintained on THYE plus spectinomycin. When culture reached to early mid-log phase (OD600 ≈ 0.25), an aliquot of CSP was added into the culture at a final concentration of 50 nM (AC50 ≈ 0.25 nM). […] Transformation frequency was expressed as percentage of transformants against total viable recipient cells per milliliter cell suspension. […]
7. All the plates are incubated at 37°C for 2 days before assessment of transformation frequency, which is expressed as percentages of transformants (erythromycin-resistant colonies) against total recipient cells per […] cell suspension. […]

Peptide text beside a SMILES is read from it.

Sequence of quorum sensing (ComCDE signaling) in S. mutans lacZ reporter strains (Q8DS94 entry or part of it): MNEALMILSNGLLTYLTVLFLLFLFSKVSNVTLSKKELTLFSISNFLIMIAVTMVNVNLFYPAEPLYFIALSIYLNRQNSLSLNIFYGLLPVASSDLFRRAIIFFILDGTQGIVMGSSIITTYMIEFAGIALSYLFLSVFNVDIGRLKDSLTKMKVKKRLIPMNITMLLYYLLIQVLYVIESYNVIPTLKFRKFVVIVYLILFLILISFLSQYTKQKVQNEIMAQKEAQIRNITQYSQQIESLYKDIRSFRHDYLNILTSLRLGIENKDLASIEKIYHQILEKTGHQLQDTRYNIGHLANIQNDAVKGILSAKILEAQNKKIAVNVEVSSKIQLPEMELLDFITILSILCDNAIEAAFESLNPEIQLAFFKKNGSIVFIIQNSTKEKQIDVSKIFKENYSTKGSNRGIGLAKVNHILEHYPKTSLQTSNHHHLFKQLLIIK

As for `CC(C)C[C@H](NC(=O)[C@H](CCCNC(=N)N)NC(=O)[C@H](Cc1ccccc1)NC(=O)[C@H](Cc1ccccc1)NC(=O)[C@@H](NC(=O)[C@H](CO)NC(=O)[C@H](CC(C)C)NC(=O)[C@@H](NC(=O)CNC(=O)[C@@H](N)CO)[C@@H](C)O)[C@@H](C)O)C(=O)N[C@@H](Cc1ccccc1)C(=O)N[C@@H](CC(N)=O)C(=O)N[C@@H](CCCNC(=N)N)C(=O)N[C@@H](CO)C(=O)N[C@@H](Cc1ccccc1)C(=O)N[C@H](C(=O)N[C@@H](CCC(N)=O)C(=O)N[C@@H](C)C(=O)O)[C@@H](C)O` [TPC3 (JH1005sp)] (H-SGTLSTFFRLFNRSFTQA-OH), the “solubility in water for NMR” value in data set [1] is given as “not soluble enough for extensive NMR studies”.

For `CC(C)C[C@H](NC(=O)[C@H](C)NC(=O)[C@H](CCC(N)=O)NC(=O)[C@@H](NC(=O)[C@H](Cc1ccccc1)NC(=O)[C@H](CO)NC(=O)[C@H](CCCNC(=N)N)NC(=O)[C@H](CC(N)=O)NC(=O)[C@H](Cc1ccccc1)NC(=O)[C@H](CC(C)C)NC(=O)[C@H](CCCNC(=N)N)NC(=O)[C@H](Cc1ccccc1)NC(=O)[C@H](Cc1ccccc1)NC(=O)[C@@H](NC(=O)[C@H](CO)NC(=O)[C@H](CC(C)C)NC(=O)[C@@H](N)CO)[C@@H](C)O)[C@@H](C)O)C(=O)NCC(=O)N[C@@H](CCCCN)C(=O)O` [TPN2] (H-SLSTFFRLFNRSFTQALGK-OH; N-terminus and C-terminus assumed), the “agonist function, AC50 compared with CSP” value in data set [2] is on record as “functioned as agonists with AC50 values similar to CSP”.

For the compound `CC(C)C[C@H](NC(=O)[C@H](C)NC(=O)[C@H](CCC(N)=O)NC(=O)[C@@H](NC(=O)[C@H](Cc1ccccc1)NC(=O)[C@H](CO)NC(=O)[C@H](CCCNC(=N)N)NC(=O)[C@H](CC(N)=O)NC(=O)[C@H](Cc1ccccc1)NC(=O)[C@H](CC(C)C)NC(=O)[C@H](CCCNC(=N)N)NC(=O)[C@H](Cc1ccccc1)NC(=O)[C@H](Cc1ccccc1)NC(=O)[C@@H](NC(=O)[C@H](CO)NC(=O)[C@H](CC(C)C)NC(=O)[C@H](CO)NC(=O)CNC(=O)[C@@H](N)CO)[C@@H](C)O)[C@@H](C)O)C(=O)NCC(=O)N[C@@H](CCCCN)C(=O)O` [CSP (UA159sp), reference compound] (H-SGSLSTFFRLFNRSFTQALGK-OH), in data set [3], the “time for which the high level of β-gal activity is maintained” value is reported as “at least 2 h” and the “time of highest level of β-gal activity after addition of peptide” value is on record as “around 90 min”. In addition, in data set [4], the “level of bacteriocins induced compared with wild-type GS5” value was “induce the same level of bacteriocins as GS5”. For the same compound, the “induction of β-gal activity upon addition of peptide” value in data set [5] was “induced to express predicted β-gal activity”. In data set [1], the “solubility in water for NMR” value is “not soluble enough for extensive NMR studies”. In addition, the “time after addition at which expression of β-gal activity declined” value in data set [6] was “around 40 min”.

As to `CC(C)C[C@H](NC(=O)[C@H](C)NC(=O)[C@H](CCC(N)=O)NC(=O)[C@@H](NC(=O)[C@H](Cc1ccccc1)NC(=O)[C@H](CO)NC(=O)[C@H](CCCNC(=N)N)NC(=O)[C@H](CC(N)=O)NC(=O)[C@H](Cc1ccccc1)NC(=O)[C@H](CC(C)C)NC(=O)[C@H](CCCNC(=N)N)NC(=O)[C@H](Cc1ccccc1)NC(=O)[C@H](Cc1ccccc1)NC(=O)[C@@H](NC(=O)[C@H](CO)NC(=O)[C@H](CC(C)C)NC(=O)[C@H](CO)NC(=O)CNC(=O)[C@@H](N)CO)[C@@H](C)O)[C@@H](C)O)C(=O)NCC(=O)O` [TPC1] (H-SGSLSTFFRLFNRSFTQALG-OH; N-terminus and C-terminus assumed), the “agonist function, AC50 compared with CSP” value in data set [2] is “functioned as agonists with AC50 values similar to CSP”.

In the case of `CC(C)C[C@H](NC(=O)[C@H](C)NC(=O)[C@H](CCC(N)=O)NC(=O)[C@@H](NC(=O)[C@H](Cc1ccccc1)NC(=O)[C@H](CO)NC(=O)[C@H](Cc1ccccc1)NC(=O)[C@H](CC(N)=O)NC(=O)[C@H](Cc1ccccc1)NC(=O)[C@H](CC(C)C)NC(=O)[C@H](CCCNC(=N)N)NC(=O)[C@H](Cc1ccccc1)NC(=O)[C@H](Cc1ccccc1)NC(=O)[C@@H](NC(=O)[C@H](CO)NC(=O)[C@H](CC(C)C)NC(=O)[C@@H](N)CO)[C@@H](C)O)[C@@H](C)O)C(=O)NCC(=O)O` [SPA-18] (H-SLSTFFRLFNFSFTQALG-OH; N-terminus and C-terminus assumed), in data set [3], the “time for which the high level of β-gal activity is maintained” value is listed as “at least 2 h” and the “time of highest level of β-gal activity after addition of peptide” value is “around 90 min”. In data set [3] (β-gal activity of SMdC-PnlmAB, Figure 4), the “replacement of CSP in activating quorum sensing” value is “could completely replace CSP (UA159sp)”. Moreover, the “replacement of CSP in inducing genetic competence” value in data set [7] is recorded as “could completely replace CSP (UA159sp)”. In addition, the “replacement of CSP in inducing bacteriocin production” value in data set [4] (Figure 5) is on record as “could completely replace CSP (UA159sp)”. In data set [4], the “level of bacteriocins induced compared with wild-type GS5” value is on record as “induce the same level of bacteriocins as GS5”.
